Experimental data published in patent USRE40300E1, “Carbon dioxide enhancement of inhalation therapy” (priority 1999, dated 2008).
Read-outs that look alike come from different tables or passages of the source.

Legend:
[1] = Tissue distribution and pharmacokinetics of CPT after CPT-DLPC aerosol generated with normal or 5% CO2-enriched air; details: 5% CO2-in-air versus normal air
Description: Briefly, an AERO-MIST jet nebulizer (CIS-USA, Bedford, Mass.) is used to generate aerosol particles at the air flow rate of 10 L/min. Mice are placed in sealed plastic cage (23×18×13 cm) and exposed to aerosol for 30 min. The aerosol is generated with normal or 5% CO2-enriched air obtained by mixing normal air and CO2 with a blender (Bird 3m, Palm Springs, Calif.) and the CO2 concentrations are calibrated with a Fluid Fyrite (Bacharach Inc., Pittsburgh, Pa.). At each time point 3 mice are removed from the cage and sacrificed by exposure to Isoflurane, USP (Abbott Laboratories, Chicago, Ill.) and exsanguination. Organs are resected, weighed and kept frozen at −70° C. until extraction.
Briefly, after thawing tissue, 20 μg of 9NC in 20 μl is added in organs as an internal standard to determine the extraction efficiency. The samples are cut in small pieces and 1 ml of 0.1% aqueous acetic acid solution, pH 3.2 is added to each sample. After the homogenization in a mini-beadbeater, the homogenates are centrifuged at 1,000×g for 5 min. The supernatant fractions are re-extracted with 8 ml of methylene chloride. The organic fraction is separated and dried under air at room temperature. […]
Chromatograms for camptothecin are monitored on Waters 470 scanning fluorescent detector (λex=360 nm, λem=455 nm) while 9NC is detected using Waters 440 UV absorbance detector monitoring at 254 nm. […]

[2] = system: B16-F10 lung metastasis; experiment: Inhibition of B16-F10 lung metastasis by aerosol delivery; assay type: in vivo, C57BL/6 mice; details: 5% CO2 alone, data not shown
Description: B16-F10 melanoma cell line was obtained from Division of Cancer treatment and Diagnosis Center (DCTDC, NCE, Frederick, Md.) and cultivated in DMEM supplemented with 10% fetal calf serum. […] Twenty-five thousand B16-F10 cells in 200 μl of media are injected per mice via the tail vein of C57BL/6 mice. Lung metastases are visually detected within 2 weeks after inoculation of cells. The cells were used at passages 3-12.
C57BL/6 mice were injected intravenously with 25,000 B16-F10 cells on day 0. The mice were treated with polyethylenimine-p53 aerosol complexes generated using 5% CO2 twice a week starting the day after inoculation of the cancer cells into the mice (on days 1, 4, 8, 11, 15, 18, and 22) with the last treatment on day 22 postinjection (a total of seven aerosol exposures). Control groups included untreated mice, mice treated with polyethyleneimine or with polyethylenimine-Luc aerosol complexes. The control animals start dying around day 24 post tumor cell inoculation, which is when the therapy was stopped and the experiment terminated. The dosage of treatment was 2 mg plasmid/10 ml of aerosolized solution at a polyethyleneimine:DNA (N:P) ratio of 10:1. This is the total amount of DNA aerosolized to the mice. […]

[3] = cited from earlier work
[4] = cited from earlier work; for increase in frequency of breathing / increase in minute volumes / increase in tidal volumes: normal humans
[5] = Tissue distribution and pharmacokinetics of PTX after PTX-DLPC aerosol generated with normal or 5% CO2-enriched air; assay type: in vivo, mice; details: for Cmax: lung, inhaled, 10 mg of PTX/ml suspension (nebulized, 30 min aerosol exposure), 30 min, read-out: Pulmonary paclitaxel Cmax
[6] = inhalation of 5% carbon dioxide
[7] = 5% carbon dioxide for two minutes
[8] = 7.5% carbon dioxide for two minutes

**Q.** With `CC[C@@]1(O)C(=O)OCc2c1cc1n(c2=O)Cc2cc3ccccc3nc2-1` [camptothecin] as the molecule, how does the “average pulmonary deposition increase” value [1] read?
**A.** 2-4 fold

**Q.** Which “effect on the growth of tumors compared to untreated mice” value [2] does the source give for `O=C=O` [carbon dioxide] here?
**A.** no effect

**Q.** And the “increase in tidal volume” value ([3]; 5% CO2-enriched air, mammalians, plethysmograph studies)?
**A.** 170-180%

**Q.** What about the “increase in tidal volume” value [3, 6] of the same molecule?
**A.** ≤ 192%

**Q.** And the “increase in frequency of breathing” value [4, 7]?
**A.** 6.7%

**Q.** What about the “increase in minute volumes” value [4, 7] of the same molecule?
**A.** 34%

**Q.** What about the “increase in tidal volumes” value [4, 7] of the same molecule?
**A.** 31%

**Q.** What about the “increase in frequency of breathing” value [4, 8] of the same molecule?
**A.** 19%

**Q.** What about the “increase in minute volumes” value [4, 8] of the same molecule?
**A.** 75%

**Q.** What about the “increase in tidal volumes” value [4, 8] of the same molecule?
**A.** 52%

**Q.** What about the “increase in the minute volume” value [4, 6] of the same molecule?
**A.** 3 fold

**Q.** With `CC(=O)O[C@H]1C(=O)[C@@]2(C)[C@H]([C@H](OC(=O)c3ccccc3)[C@]3(O)C[C@H](OC(=O)[C@H](O)[C@@H](NC(=O)c4ccccc4)c4ccccc4)C(C)=C1C3(C)C)[C@]1(OC(C)=O)CO[C@@H]1C[C@@H]2O` [paclitaxel] as the molecule, how does the “area under the lung-concentration-time curve” value ([5]; 5% CO2) read?
**A.** 33.7 µg·h/g

**Q.** And the “T1/2α in the lungs” value ([5]; 5% CO2-air)?
**A.** 0.7 h

**Q.** What about the “T1/2β in the lungs” value ([5]; 5% CO2-air) of the same molecule?
**A.** 5.1 h

**Q.** What about the “AUC over a 3 hr period, fifth value of list (blood)” value ([5]; 5% CO2-air, trapezoidal rule) of the same molecule?
**A.** 0.13±0.10 μg PTS-hr/g of tissue

**Q.** And the “AUC over a 3 hr period, fourth value of list (kidney)” value ([5]; 5% CO2-air, trapezoidal rule)?
**A.** 2.8±1.5 μg PTS-hr/g of tissue

**Q.** And the “AUC over a 3 hr period, liver” value ([5]; 5% CO2-air, trapezoidal rule)?
**A.** 9.8±1.9 μg PTS-hr/g of tissue

**Q.** And the “AUC over a 3 hr period, lungs” value ([5]; 5% CO2-air, trapezoidal rule)?
**A.** 34±2 μg PTS-hr/g of tissue

**Q.** And the “AUC over a 3 hr period, sixth value of list (brain)” value ([5]; 5% CO2-air, trapezoidal rule)?
**A.** 0.23±0.2 μg PTS-hr/g of tissue

**Q.** And the “average pulmonary deposition increase” value ([5]; 5% CO2-in-air versus normal air)?
**A.** 2-4 fold

**Q.** What about the “Cmax ratio 5% CO2-enriched air versus ambient air” value ([5]; lungs) of the same molecule?
**A.** 4.2 fold

**Q.** What about the “lung AUC ratio 5% CO2 versus normal air” value ([5]; mouse, in vivo) of the same molecule?
**A.** 5.7 fold

**Q.** What about the Cmax ([5]; mouse, 5% CO2-enriched air) of the same molecule?
**A.** 23100 ± 4300 ng/g

**Q.** And the Cmax ([5]; mouse, ambient air)?
**A.** 5500 ± 200 ng/g

**Q.** What about the “T1/2α in the lungs” value ([5]; normal air) of the same molecule?
**A.** 0.3 h

**Q.** And the “T1/2β in the lungs” value ([5]; normal air)?
**A.** 1.6 h

**Q.** What about the “area under the lung-concentration-time curve” value ([5]; normal air) of the same molecule?
**A.** 5.9 µg·h/g

**Q.** And the “levels of paclitaxel in liver, spleen, kidney and blood” value ([5]; normal air for aerosolization)?
**A.** below detectable levels
